Results on six compounds are retold here after ChEMBL document CHEMBL1909538, “Iodine-catalyzed conjugate addition of indoles onto en-1,4-dione: a novel synthesis of 3-(1-(1H-indol-3-yl)-2-oxo-2-phenylethyl)indolin-2-ones as antibacterial and antifungal agents” (2011).

Converted amounts (≈) assume the structure as drawn.

Test [1] concerns Pseudomonas aeruginosa. Description: Antimicrobial activity against Pseudomonas aeruginosa MTCC 741 by broth dilution method. The class given is functional. In general terms: Dilution methods test growth across graded concentrations, often in twofold steps.
The subject of test [2] is Saccharomyces cerevisiae. Description: Antifungal activity against Saccharomyces cerevisiae MTCC 36 at 100 ug after 48 hrs by agar well diffusion method. Format: functional. Conditions: MTCC 36, 48 h, read-out: DIZ. (A growth-free zone around the sample is the usual read-out of agar diffusion tests.)
Test [3] relates to Candida albicans. Description: Antifungal activity against Candida albicans MTCC 227 at 150 ug after 48 hrs by agar well diffusion method. The conditions noted are these: MTCC 227, 48 h, read-out: DIZ. The class given is functional.
Test [4] deals with Diutina rugosa. Description: Antifungal activity against Candida rugosa at 150 ug after 48 hrs by agar well diffusion method. The conditions noted are these: read-out: DIZ. Format: functional.
Test [5] concerns Staphylococcus aureus. Description: Antimicrobial activity against Staphylococcus aureus MTCC 96 by broth dilution method. The class given is functional.
The test system of test [6] is Aspergillus flavus. Description: Antifungal activity against Aspergillus flavus at 100 ug after 48 hrs by agar well diffusion method. The conditions noted are these: read-out: DIZ.
The subject of test [7] is Aspergillus flavus. Briefly: Antifungal activity against Aspergillus flavus at 150 ug after 48 hrs by agar well diffusion method. The conditions noted are these: read-out: DIZ.
The subject of test [8] is Klebsiella pneumoniae. Description: Antimicrobial activity against Klebsiella pneumoniae MTCC 618 by broth dilution method. Format: functional.
For test [9], the system named is Bacillus subtilis. Description: Antimicrobial activity against Bacillus subtilis MTCC 441 by broth dilution method. Format: functional.
The test system of test [10] is Escherichia coli. Description: Antimicrobial activity against Escherichia coli MTCC 443 by broth dilution method. Format: functional.
Test [11] concerns Candida albicans. Description: Antifungal activity against Candida albicans MTCC 227 at 100 ug after 48 hrs by agar well diffusion method. The class given is functional. The conditions noted are these: MTCC 227, 48 h, read-out: DIZ.
In test [12] the test system is Saccharomyces cerevisiae. Briefly: Antifungal activity against Saccharomyces cerevisiae MTCC 36 at 150 ug after 48 hrs by agar well diffusion method. Format: functional. The conditions noted are these: MTCC 36, 48 h, read-out: DIZ.
Test [13] deals with Diutina rugosa. Briefly: Antifungal activity against Candida rugosa at 100 ug after 48 hrs by agar well diffusion method. Conditions: read-out: DIZ. The class given is functional.
Test [14] relates to Staphylococcus epidermidis. Description: Antimicrobial activity against Staphylococcus epidermidis by broth dilution method. Format: functional.
Test [15] concerns Aspergillus flavus. Description: Antifungal activity against Aspergillus flavus at 50 ug after 48 hrs by agar well diffusion method. Conditions: read-out: DIZ.
Test [16] deals with Diutina rugosa. Description: Antifungal activity against Candida rugosa at 50 ug after 48 hrs by agar well diffusion method. Format: functional. Conditions: read-out: DIZ.
Test [17] has as its system Candida albicans. Briefly: Antifungal activity against Candida albicans MTCC 227 at 50 ug after 48 hrs by agar well diffusion method. Format: functional. Conditions: MTCC 227, 48 h, read-out: DIZ.
The test system of test [18] is Saccharomyces cerevisiae. Briefly: Antifungal activity against Saccharomyces cerevisiae MTCC 36 at 50 ug after 48 hrs by agar well diffusion method. Format: functional. Conditions: MTCC 36, 48 h, read-out: DIZ.

Turning to `N#Cc1ccc2[nH]cc(C(C(=O)c3ccccc3)C3C(=O)Nc4ccccc43)c2c1` (centres undefined), the MIC in [1], in [5], in test [8], in [9], in test [10] and in test [14] was 150 µg/mL (≈ 383 µM) in each case. Besides, the zone of inhibition at 100 µg/disc in [2] stood at 0 mm; in [6], 0 mm; in [11], 0 mm; in test [13], 8 mm. For the same compound, the zone of inhibition at 150 µg/disc in [3] was 0 mm; in test [4], 11 mm; in [7], 0 mm; in test [12], 0 mm.

In the case of `Cc1[nH]c2ccccc2c1C(C(=O)c1ccccc1)C1C(=O)Nc2ccccc21` (centres undefined), the MIC in [1] was 18.8 µg/mL (≈ 49.3 µM); in test [5], 37.5 µg/mL (≈ 98.6 µM); in [8] it was 150 µg/mL (≈ 394 µM); in test [9], 150 µg/mL (≈ 394 µM); in [10], 150 µg/mL (≈ 394 µM); in test [14] it was 150 µg/mL (≈ 394 µM). Moreover, the zone of inhibition at 100 µg/disc in test [2] was 0 mm; in [6], 0 mm; in [11] it was 0 mm; in test [13], 9 mm. Further, the zone of inhibition at 150 µg/disc in [3] was 0 mm; in test [4], 13 mm; in test [7], 0 mm; in [12], 0 mm.

For the compound `O=C1Nc2ccccc2C1C(C(=O)c1ccccc1)c1c[nH]c2ccc(Br)cc12` (centres undefined), the MIC in [1] is 18.8 µg/mL (≈ 42.1 µM); in test [5], 150 µg/mL (≈ 337 µM); in [8], 150 µg/mL (≈ 337 µM); in [9], 150 µg/mL (≈ 337 µM); in [10], 150 µg/mL (≈ 337 µM); in test [14], 150 µg/mL (≈ 337 µM). Besides, the zone of inhibition at 100 µg/disc in test [2], in test [6], in [11] and in [13] was 0 mm each time. In addition, the zone of inhibition at 150 µg/disc stood at 0 mm in test [3], 15 mm in test [4], 0 mm in [7] and 0 mm in test [12].

For `O=C1Nc2ccccc2C1C(C(=O)c1ccccc1)c1c[nH]c2ccccc12` (centres undefined), the MIC came out at 9.38 µg/mL (≈ 25.6 µM) in test [1]; 75 µg/mL (≈ 205 µM) in test [5]; 150 µg/mL (≈ 409 µM) in test [8]; 75 µg/mL (≈ 205 µM) in test [9]; 150 µg/mL (≈ 409 µM) in test [10]; 150 µg/mL (≈ 409 µM) in [14]. In addition, the zone of inhibition at 100 µg/disc came out at 0 mm in [2], 0 mm in [6], 0 mm in test [11] and 11 mm in test [13]. The zone of inhibition at 150 µg/disc in test [3] was determined as 0 mm; in test [4], 16 mm; in test [7] it was 0 mm; in test [12] it was 0 mm.

With `C[C@@H]1[C@H](O)[C@@H](C)/C=C/C=C/C=C/C=C/C=C/C=C/C=C/[C@H](O[C@@H]2O[C@H](C)[C@@H](O)[C@H](N)[C@@H]2O)C[C@@H]2O[C@](O)(C[C@@H](O)C[C@@H](O)[C@H](O)CC[C@@H](O)C[C@@H](O)CC(=O)O[C@H]1C)C[C@H](O)[C@H]2C(=O)O` [AMPHOTERICIN B], the zone of inhibition at 50 µg/disc in test [15] turned out to be 25 mm; in test [16], 21 mm; in [17] it was 23.5 mm; in [18], 22 mm.

As to `O=C1Nc2ccccc2C1C(C(=O)c1ccccc1)c1c[nH]c2ccc([N+](=O)[O-])cc12` (centres undefined), the MIC stood at 9.38 µg/mL (≈ 22.8 µM) in test [1]; 150 µg/mL (≈ 365 µM) in test [5]; 150 µg/mL (≈ 365 µM) in test [8]; 75 µg/mL (≈ 182 µM) in [9]; 150 µg/mL (≈ 365 µM) in [10]; 150 µg/mL (≈ 365 µM) in test [14]. Moreover, the zone of inhibition at 100 µg/disc in test [2], in test [6], in test [11] and in test [13] was 0 mm throughout. Further, the zone of inhibition at 150 µg/disc in test [3], in [4], in test [7] and in test [12] was 0 mm each time.

In general, MIC refers to the smallest concentration in the dilution series that meets the test's criterion for growth inhibition. A low value points to a more susceptible organism.
